According to PMC6300691, “Enhancement of Heat Stability and Kinetic Parameters of the Maize Endosperm ADP-Glucose Pyrophosphorylase by Mutagenesis of Amino Acids in the Small Subunit With High B Factors” (Frontiers in Plant Science, 2018):
Positions count from the first letter of the chain named.

Tests used:
wt (SH2-WT/BT2-WT) = wt (SH2-WT/BT2-WT) (Zea mays, UniProt P55241+Q947C0); conditions: read-out: KM ATP
Text: (§1) All V versus S plots were fitted using non-linear regression analysis and the following equation, v = VmaxS/(Km + S), where v is the measured velocity, Vmax is the maximum velocity, S is the substrate concentration.

K403R = K403R (Zea mays, UniProt P55241+Q947C0, K403R); conditions: read-out: KM ATP
Text: as §1

SH2-ISM = molecular target: T1, SH2-ISM (Zea mays, UniProt P55241+Q947C0, Q96G/D161G/A443R); experiment: Pi inhibition study without 3-PGA, ATP varied (0.1-3 mM) at fixed Pi levels (10-30 mM) and sub-saturating G-1-P (1 mM), fit to mixed-type inhibition equations.; assay type: biochemical; conditions: read-out: Km (mM), varied substrate ATP, Pi inhibition in the absence of 3-PGA
T1 construct: SH2-ISM with wild type BT2 (SH2-ISM/BT2-WT), E. coli, purified
T1 sequence (Q947C0 1-475): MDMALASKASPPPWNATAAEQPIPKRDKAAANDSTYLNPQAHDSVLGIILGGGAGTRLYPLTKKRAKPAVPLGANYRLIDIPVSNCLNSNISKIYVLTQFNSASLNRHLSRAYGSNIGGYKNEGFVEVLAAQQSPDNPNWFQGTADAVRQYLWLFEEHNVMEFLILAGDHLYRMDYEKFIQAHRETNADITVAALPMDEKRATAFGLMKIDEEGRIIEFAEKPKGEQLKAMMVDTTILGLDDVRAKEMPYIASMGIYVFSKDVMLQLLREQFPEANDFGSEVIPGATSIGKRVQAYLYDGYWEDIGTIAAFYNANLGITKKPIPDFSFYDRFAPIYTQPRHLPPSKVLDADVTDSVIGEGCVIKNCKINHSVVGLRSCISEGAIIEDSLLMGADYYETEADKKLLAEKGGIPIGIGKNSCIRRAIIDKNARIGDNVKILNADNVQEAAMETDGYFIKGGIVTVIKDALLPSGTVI
T1 sequence (P55241 46-516 Q96G/D161G/A443R): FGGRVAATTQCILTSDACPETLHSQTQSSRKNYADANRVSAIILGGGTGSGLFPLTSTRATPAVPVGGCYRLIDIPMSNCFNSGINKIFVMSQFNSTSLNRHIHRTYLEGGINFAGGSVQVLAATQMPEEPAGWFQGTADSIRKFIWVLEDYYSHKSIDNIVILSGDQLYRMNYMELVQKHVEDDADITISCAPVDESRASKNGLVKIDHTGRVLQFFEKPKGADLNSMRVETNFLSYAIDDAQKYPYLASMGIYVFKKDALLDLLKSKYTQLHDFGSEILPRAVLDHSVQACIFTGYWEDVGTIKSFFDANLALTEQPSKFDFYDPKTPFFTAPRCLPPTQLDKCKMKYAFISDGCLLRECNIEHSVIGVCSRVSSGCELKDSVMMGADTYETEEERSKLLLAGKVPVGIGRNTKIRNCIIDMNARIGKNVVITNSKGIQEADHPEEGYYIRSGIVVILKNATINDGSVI
Method: (§2) Pi inhibition was carried out in both the presence and absence of 3-PGA with the Pi and substrate concentrations listed below.
(§3) Pi inhibition patterns in the presence and absence of 3PGA were also determined. Pi inhibition patterns were obtained by varying one substrate at several fixed concentrations of Pi, while holding the co-substrate at constant sub-saturating levels.

SH2-E = molecular target: T2, SH2-E (Zea mays, UniProt P55241+Q947C0, N131R/T142F/A160T/Q261S/A396S/V416I/C424V/S444A); experiment: as above; assay type: biochemical; conditions: read-out: Km (mM), varied substrate ATP, Pi inhibition in the absence of 3-PGA
T2 construct: SH2-E with wild type BT2 (SH2-E/BT2-WT), E. coli, purified
T2 sequence (Q947C0 1-475): T1 sequence (Q947C0 1-475)
T2 sequence (P55241 46-516 N131R/T142F/A160T/Q261S/A396S/V416I/C424V/S444A): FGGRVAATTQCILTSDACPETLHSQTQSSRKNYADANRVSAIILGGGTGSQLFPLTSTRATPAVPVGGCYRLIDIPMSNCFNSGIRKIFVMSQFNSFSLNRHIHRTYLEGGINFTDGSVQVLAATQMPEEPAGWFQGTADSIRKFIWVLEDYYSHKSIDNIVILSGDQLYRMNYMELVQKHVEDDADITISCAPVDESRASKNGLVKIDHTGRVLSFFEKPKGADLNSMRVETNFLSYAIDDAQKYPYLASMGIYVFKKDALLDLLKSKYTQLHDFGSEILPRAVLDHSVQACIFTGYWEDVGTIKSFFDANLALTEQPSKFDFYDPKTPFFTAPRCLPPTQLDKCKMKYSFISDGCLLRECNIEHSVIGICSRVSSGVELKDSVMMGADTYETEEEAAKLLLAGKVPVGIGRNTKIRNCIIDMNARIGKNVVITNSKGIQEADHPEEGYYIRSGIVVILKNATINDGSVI
Method: as §2, §3

[1] = molecular target: T3, E123G, R331K, K402R (BT2-BF) (Zea mays, UniProt P55241+Q947C0, E123G/R331K/K402R); experiment: as above; assay type: biochemical; conditions: read-out: Km (mM), varied substrate ATP, Pi inhibition in the absence of 3-PGA
T3 construct: BT2-BF with wild type SH2 (SH2-WT/BT2-BF), E. coli, purified
T3 sequence (Q947C0 1-475 E123G/R331K/K402R): T1 sequence (Q947C0 1-475) with E123G, R331K, K402R
T3 sequence (P55241 46-516): T1 sequence (P55241 46-516 Q96G/D161G/A443R) with G51Q, G116D, R398A
Method: as §2, §3

Chain of wt (SH2-WT/BT2-WT) (P55241 46-516, one chain of several): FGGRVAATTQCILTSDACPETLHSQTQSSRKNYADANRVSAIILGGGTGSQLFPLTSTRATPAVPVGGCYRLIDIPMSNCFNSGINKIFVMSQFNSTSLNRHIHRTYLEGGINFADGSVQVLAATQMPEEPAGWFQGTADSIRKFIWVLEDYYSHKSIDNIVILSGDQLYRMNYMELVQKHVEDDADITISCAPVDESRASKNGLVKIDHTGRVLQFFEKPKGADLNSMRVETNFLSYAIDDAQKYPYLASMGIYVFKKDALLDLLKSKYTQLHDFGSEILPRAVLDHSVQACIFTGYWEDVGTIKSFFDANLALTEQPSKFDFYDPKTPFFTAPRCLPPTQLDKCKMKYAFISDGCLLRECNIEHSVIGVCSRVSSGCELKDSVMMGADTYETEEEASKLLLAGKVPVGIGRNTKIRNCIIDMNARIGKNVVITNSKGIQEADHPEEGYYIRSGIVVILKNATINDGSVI
Chain of K403R (Q947C0 1-475 K403R): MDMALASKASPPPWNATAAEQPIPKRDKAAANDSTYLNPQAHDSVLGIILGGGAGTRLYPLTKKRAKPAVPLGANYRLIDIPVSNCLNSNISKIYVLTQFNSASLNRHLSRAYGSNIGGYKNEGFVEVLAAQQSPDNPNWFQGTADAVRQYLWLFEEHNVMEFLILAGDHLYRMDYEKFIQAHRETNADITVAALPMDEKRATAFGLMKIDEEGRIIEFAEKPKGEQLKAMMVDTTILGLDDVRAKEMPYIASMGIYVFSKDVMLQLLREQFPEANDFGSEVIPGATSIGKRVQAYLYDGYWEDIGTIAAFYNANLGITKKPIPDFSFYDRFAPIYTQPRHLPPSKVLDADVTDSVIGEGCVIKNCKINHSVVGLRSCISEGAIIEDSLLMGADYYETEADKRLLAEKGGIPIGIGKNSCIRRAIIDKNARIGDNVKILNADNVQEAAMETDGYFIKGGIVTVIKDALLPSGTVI
Chain of K403R (P55241 46-516): as the sequence (P55241 46-516, one chain of several) above

Q: With `Nc1ncnc2c1ncn2[C@@H]1O[C@H](COP(=O)(O)OP(=O)(O)OP(=O)(O)O)[C@@H](O)[C@H]1O` [ATP, adenosine 5'-triphosphate] as the compound, how does the Km (wt (SH2-WT/BT2-WT)) read?
A: 75 ± 18 µM

Q: What about the Km (K403R) of the same compound?
A: 75 ± 13 µM

Q: And the Km (SH2-ISM)?
A: 0.54 ± 0.057 mM

Q: And the Km (SH2-E)?
A: 0.97 ± 0.081 mM

Q: What about the Km [1] of the same compound?
A: 0.79 ± 0.075 mM
